Counter-ions that a name gives are not always drawn.
Biological target: NMDA receptor
Assay: [3H] MK-801 binding test on rat brain membrane specimen
Conditions: read-out: Ki (NMDA receptor affinity)
Description: 1) Preparation of Specimens of Rat Meninges:
The whole brain was taken out from 30 10-week SD rats (Nippon SLC), and the cerebellum was removed from them. A 0.32 M sucrose solution was added to the part containing the cerebrum, cut in a mixer, and homogenized with a Teflon™ (trademark) homogenizer. This was centrifuged at 2800 rpm and 4° C. for 15 minutes, and the resulting supernatant was again centrifuged at 15000 g and 4° C. for 20 minutes. The pellets were suspended in 50 mM Tris-HCL (pH 7.5) containing 0.08% Triton X-100, and kept statically on ice for 30 minutes, then centrifuged at 15000 g and 4° C. for 20 minutes. The pellets were suspended in 50 mM Tris-HCl (pH 7.5) added thereto, and centrifuged at 15000 g and 4° C. for 20 minutes. 50 mM Tris-HCl (pH 7.5) was again added to the pellets, and centrifuged in the same manner as before. The pellets were suspended in 20 ml of 50 mM Tris-HCl (pH 7.5) added thereto, and homogenized with the Teflon™ (trademark) homogenizer. The membrane specimen was divided into small tubes and stored in a deep freezer (−80° C.). Before use, this was washed twice with 5 mM Tris-HCl (pH 7.5) of five times that of the membrane specimen. Its concentration was controlled at 1 mg protein/ml with 5 mM Tris-HCl (pH 7.5) added to it, and this was used for assay.
2) [^3H] MK-801 Binding Assay:
50 μl of the rat membrane specimen (1 mg protein/ml) was added to a solution of a test compound dissolved in 1 μl of DMSO.

## CCC1(CC)Cc2ccccc2C1(N)c1ccccc1 (stereo not drawn) [Example 2]
  Ki: 400 nM

## CNC1(c2ccccc2)c2ccccc2CC1(C)C (stereo not drawn) [Example 10, N,2,2-trimethyl-1-phenylindan-1-amine hydrochloride]
  Ki: 400 nM

## CC1(C)Cc2ccccc2C1(N)c1ccc(F)cc1 (stereo not drawn) [Example 17, 1-(4-Fluorophenyl)-2,2-dimethylindan-1-amine monofumarate]
  Ki: 800 nM

## COc1ccccc1C1(N)c2ccccc2CC1(C)C (stereo not drawn) [Example 18, 1-(2-Methoxyphenyl)-2,2-dimethylindan-1-amine hydrochloride]
  Ki: 300 nM

## CC1(C)Cc2ccccc2C1(N)c1cccc(O)c1 (stereo not drawn) [Example 21, 1-(3-Hydroxyphenyl)-2,2-dimethylindan-1-amine]
  Ki: 100 nM

## CC1(C)Cc2ccccc2C1(C)N (stereo not drawn) [Example 23, 1,2,2-Trimethylindan-1-amine hydrochloride]
  Ki: 900 nM

## Cc1ccc2c(c1)C(C)(N)C(C)(C)C2 (stereo not drawn) [Example 36, 1,2,2,6-Tetramethylindan-1-amine hydrochloride]
  Ki: 400 nM

## COc1ccc2c(c1)C(C)(N)C(C)(C)C2 (stereo not drawn) [Example 38, 6-Methoxy-1,2,2-trimethylindan-1-amine hydrochloride]
  Ki: 300 nM

## CC1(C)Cc2ccc(F)cc2C1(C)N (stereo not drawn) [Example 41, 6-Fluoro-1,2,2-trimethylindan-1-amine hydrochloride]
  Ki: 800 nM

## CC1(C)Cc2ccc(Br)cc2C1(C)N (stereo not drawn) [Example 42, 6-Bromo-1,2,2,-trimethylindan-1-amine hydrochloride]
  Ki: 300 nM

## CC1(C)Cc2ccc(C(F)(F)F)cc2C1(C)N (stereo not drawn) [Example 43, 6-Trifluoromethyl-1,2,2-trimethylindan-1-amine hydrochloride]
  Ki: 300 nM

## CC1(C)Cc2ccc(C#N)cc2C1(C)N (stereo not drawn) [Example 44, 6-Cyano-1,2,2-trimethylindan-1-amine hydrochloride]
  Ki: 600 nM

## CC1(C)Cc2cccc(F)c2C1(C)N (stereo not drawn) [Example 48, 7 Fluoro-1,2,2-trimethylindan-1-amine hydrochloride]
  Ki: 600 nM

## CCC1(N)c2cccc(C)c2CC1(C)C (stereo not drawn) [Example 59]
  Ki: 900 nM

## CCCCC1(N)c2ccccc2CC1(C)C (stereo not drawn) [Example 61]
  Ki: 500 nM

— US8013018B2, “Aminoindane derivative or salt thereof” (Astellas Pharma Inc., priority 2006, dated 2011)
